Key:
MM.1R = assay: CCK-8 proliferation, MM.1R; type: cell-based; conditions: CCK-8, 72 hours, read-out: Inhibitory activity (IC50) on tumor cell proliferation, MM.1R
Method in brief: (§1)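 Tumor cells were cultured at 37°C with 5% CO2, seeded, and after 24h treated with compounds at 10 concentrations starting at 10µM (5-fold serial dilutions).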

SW620 = assay: CCK-8 proliferation, SW620; type: cell-based; conditions: Homo sapiens, SW-620; CCK-8; 96 hours; read-out: Inhibitory activity (IC50) on tumor cell proliferation, SW620
Method in brief: as §1

K562 = assay: CCK-8 proliferation, K562; type: cell-based; conditions: Homo sapiens, 72 or 96 hours, read-out: Inhibitory activity (IC50) on tumor cell proliferation, K562
Procedure: (§2) The tumor cells used herein were cultured in a cell culture medium listed in table A1 at 37°C in an incubator with 5% CO2. Prior to experimentation, all cell lines used were correctly identified by STR profiling, and tested negative for mycoplasma contamination using a mycoplasma detection kit through routine screenings. Table A1. Tumor cells and cell culture medium used in the present disclosure
(§3) IC50 values of the compounds of the present disclosure (including the compounds in Table 1, and compounds of examples) were measured using the Meilun Cell Counting Kit-8 kit from Dalian Meilun Biotech Co., Ltd. Assay details are as follows: tumor cells were seeded in a 96-well plate at a density listed in Table A2. After 24h, 100 µL of the inoculated cells were treated with 0.5µL of the compounds of the present disclosure (including the compounds in Tables 1 and 2, and compounds of examples) at 10 different successively decreasing concentrations (starting at the highest concentration of 10µM; 5-fold serial dilutions). After the cells were treated with the compounds of the present disclosure for a period of time, the cell viability detection reagent was added to the culture medium for cell viability assessment according to the instructions provided with the CCK-8 kit. […] The growth inhibition of the compounds of the present disclosure on cells was plotted by Prism Graphpad software, and the IC50 values of the compounds of the present disclosure were calculated therefrom. […] Seeding protocol and treatment time for tumor cells

[1] = target: T1, human Cereblon WT GST-tagged protein (Homo sapiens, UniProt Q96SW2); assay: CRBN binding, HTRF (CEREBLON BINDING kit); conditions: HTRF; for IC50: Table II-1, CRBN binding
T1 construct: purchased CISBIO 64BDCRBNPEH
Method in brief: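 After 3 h at room temperature, emission at 665 and 620 nm was measured in a homogeneous time-resolved fluorescence format. Compounds competed with a Thalidomide-Re probe for GST-tagged wild-type human CRBN, which was labelled with a Eu anti-GST antibody.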

ER = target: T2, ER (Homo sapiens, UniProt P03372); assay: Western blot degradation of ER (MCF-7 Cell); type: cell-based; conditions: Table D12
T2 construct: evaluate the effects of the compounds of the present disclosure on the expression of target proteins in cells; endogenous in cells; host or cells: MCF-7
T2 sequence (P03372 1-595): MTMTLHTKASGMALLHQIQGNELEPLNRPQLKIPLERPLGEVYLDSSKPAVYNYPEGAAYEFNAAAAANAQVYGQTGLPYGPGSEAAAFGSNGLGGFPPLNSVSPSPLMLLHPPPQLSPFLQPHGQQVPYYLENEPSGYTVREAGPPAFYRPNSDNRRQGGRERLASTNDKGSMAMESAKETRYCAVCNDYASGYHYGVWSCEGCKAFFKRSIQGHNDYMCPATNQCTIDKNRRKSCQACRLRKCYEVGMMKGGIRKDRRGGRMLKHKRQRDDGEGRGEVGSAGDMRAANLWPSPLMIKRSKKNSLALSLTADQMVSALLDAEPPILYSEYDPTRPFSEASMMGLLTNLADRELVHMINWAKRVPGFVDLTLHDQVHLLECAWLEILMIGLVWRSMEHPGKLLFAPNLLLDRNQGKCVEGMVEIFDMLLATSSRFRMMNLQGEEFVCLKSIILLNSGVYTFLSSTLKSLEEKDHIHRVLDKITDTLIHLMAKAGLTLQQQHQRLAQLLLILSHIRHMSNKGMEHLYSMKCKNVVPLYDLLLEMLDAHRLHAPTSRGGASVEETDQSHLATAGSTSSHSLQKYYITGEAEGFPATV
Procedure: (§4) Conventional Western blot assay was performed to evaluate the effects of the compounds of the present disclosure on the expression of target proteins in cells.
(§5) (1) Cell Seeding and Protein Harvesting: The selected cells were processed according to the cell seeding procedure and protein harvesting procedure in Table III-2. Table III-2 Cell Seeding and Protein Harvesting Procedures
(§6) (2) To the collected supernatant, 5X SDS sample loading buffer was added, followed by denaturation at 95°C for 5 minutes. The denatured samples were then separated by SDS-PAGE electrophoresis on a polyacrylamide gel. Proteins were transferred to a nitrocellulose membrane (0.45 µm NC membrane), blocked with blocking buffer at room temperature for 1 hour, and subjected to antibody incubation and development procedures according to the antibody manufacturer's instructions (Cell Signaling Technology).
(§7) Half-Maximal Degradation Concentration value (the drug concentration required for degrading proteins by 50%, abbreviated as DC50) reads method: comparing the grayscale values of Western blot bands from drug-treated samples with those from blank DMSO-treated controls, and identifying the drug concentration range at which the grayscale value is half that of the DMSO-treated control bands.
(§8) DC50 values can be calculated using ImageJ software to measure grayscale values of Western blot bands from drug-treated samples. The concentration-response curve is fitted to estimate the drug concentration corresponding to half the grayscale value.
(§9) Target protein remaining (%) refers to the percentage of target protein remaining in hPBMC cells after treatment with protein degrader compounds.
Calculation method for target protein remaining (%): Use ImageJ software to measure grayscale values of Western blot bands from drug (protein degrader)-treated samples. The grayscale value of drug-treated bands is divided by that of internal control protein bands, and the resulting quotient is normalized to obtain the relative percentage of remaining target protein after protein degrader treatment.
Target protein degradation rate (%) = 100% - target protein remaining (%).

MGC-803 = assay: CCK-8 proliferation, MGC-803 (heads: MGC80-3, MGC803); type: cell-based, Human; conditions: Homo sapiens, MGC-803; CCK-8; 72 hours; read-out: Inhibitory activity (IC50) on tumor cell proliferation, MGC803
Method in brief: as §1

CCRF-CEM = assay: CCK-8 proliferation, CCRF-CEM; type: cell-based, Human; conditions: Homo sapiens, CCRF-CEM; CCK-8; 96 hours; read-out: Inhibitory activity (IC50) on tumor cell proliferation, CCRF-CEM
Method in brief: as §1

Jurkat = assay: CCK-8 proliferation, Jurkat; type: cell-based, Human; conditions: Homo sapiens, Jurkat; CCK-8; 96 hours; read-out: Inhibitory activity (IC50) on tumor cell proliferation, Jurkat
Method in brief: as §1

LNcap = assay: CCK-8 proliferation, LNcap; type: cell-based; conditions: Homo sapiens, LNCaP; CCK-8; 96 hours; read-out: Inhibitory activity (IC50) on tumor cell proliferation, Lncap
Method in brief: as §1

CFPAC-1 = assay: CCK-8 proliferation, CFPAC-1; type: cell-based; conditions: Homo sapiens, 72 or 96 hours, read-out: Inhibitory activity (IC50) on tumor cell proliferation, CFPAC-1
Procedure: as §2, §3

TRK = assay: Western blot degradation of TRK / NTRK (SK-N-AS Cell); type: cell-based; conditions: Table D14
Procedure: as §4, §5, §6, §7, §8, §9
Calculation method for target protein remaining (%): Use ImageJ software to measure grayscale values of Western blot bands from drug (protein degrader)-treated samples. The grayscale value of drug-treated bands is divided by that of internal control protein bands, and the resulting quotient is normalized to obtain the relative percentage of remaining target protein after protein degrader treatment. […]

H2228 = assay: CCK-8 proliferation, NCI-H2228 (H2228); type: cell-based; conditions: Homo sapiens, NCI-H2228; CCK-8; 96 hours; read-out: Inhibitory activity (IC50) on tumor cell proliferation, H2228
Method in brief: as §1

PC-9 = assay: CCK-8 proliferation, PC-9; type: cell-based, Human; conditions: Homo sapiens, PC-9; CCK-8; 96 hours; read-out: Inhibitory activity (IC50) on tumor cell proliferation, PC-9
Method in brief: as §1

H1975 = assay: CCK-8 proliferation, NCI-H1975 (H1975); type: cell-based, Human; conditions: Homo sapiens, NCI-H1975; CCK-8; 96 hours; read-out: Inhibitory activity (IC50) on tumor cell proliferation, H1975
Method in brief: as §1

TMD8 = assay: CCK-8 proliferation, TMD8; type: cell-based; conditions: Homo sapiens, TMD8; CCK-8; 72 hours; read-out: Inhibitory activity (IC50) on tumor cell proliferation, TMD8
Method in brief: as §1

T1 sequence (Q96SW2 whole entry): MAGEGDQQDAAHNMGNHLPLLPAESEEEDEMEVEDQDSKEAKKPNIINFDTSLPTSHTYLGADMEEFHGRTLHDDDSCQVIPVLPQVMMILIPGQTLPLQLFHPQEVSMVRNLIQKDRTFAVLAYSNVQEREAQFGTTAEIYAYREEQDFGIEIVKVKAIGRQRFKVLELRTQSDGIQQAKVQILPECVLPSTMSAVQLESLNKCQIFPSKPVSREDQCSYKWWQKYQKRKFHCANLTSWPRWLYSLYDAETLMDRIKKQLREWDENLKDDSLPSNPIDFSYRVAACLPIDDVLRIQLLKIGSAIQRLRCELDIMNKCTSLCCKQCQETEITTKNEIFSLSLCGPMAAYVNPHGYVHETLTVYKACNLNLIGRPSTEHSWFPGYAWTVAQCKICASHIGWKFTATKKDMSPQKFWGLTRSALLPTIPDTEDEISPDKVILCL

NC(=O)c1ccc(N2CCC(N3CCN(Cc4ccc(C5CCC(=O)NC5=O)cc4)CC3)CC2)nc1-c1ccc(Oc2ccccc2)cc1 (stereo not shown) [GT-03753, 6-(4-(4-(4-(2,6-dioxopiperidin-3-yl)benzyl)piperazin-1-yl)piperidin-1-yl)-2-(4-phenoxyphenyl)nicotinamide]
IC50 (MM.1R): 500 to 1000 nM
IC50 (SW620): 500 to 1000 nM
IC50 (K562): 100 to 500 nM

O=C1CCC(c2ccc(CN3CCN(C4CCN(c5ccc([C@@H]6c7ccc(O)cc7CC[C@@H]6c6ccccc6)cc5)CC4)CC3)cc2)C(=O)N1 (stereo partly drawn) [GT-04684, 3-(4-((4-(1-(4-((1R,2S)-6-hydroxy-2-phenyl-1,2,3,4-tetrahydronaphthalen-1-yl)phenyl)piperidin-4-yl)piperazin-1-yl)methyl)phenyl)piperidine-2,6-dione]
IC50 [1]: 1000 to 1900 nM
Degradation of substrate protein ER (substrate protein remaining %) (ER): A (A is defined as 0% ≤ substrate protein remaining % ≤ 80%)

Cc1ccc(C(=O)Nc2ccc(CN3CCN(Cc4ccc(C5CCC(=O)NC5=O)cc4)CC3)c(C(F)(F)F)c2)cc1C#Cc1cnc2cccnn12 (stereo not shown) [GT-03936]
IC50 (SW620): 100 to 500 nM
IC50 (MGC-803): 100 to 500 nM
IC50 (CCRF-CEM): 100 to 500 nM
IC50 (Jurkat): 50 to 100 nM
IC50 (LNcap): 100 to 500 nM
IC50 (CFPAC-1): 100 to 500 nM

NC(=O)c1ccc(N2CCC(N3CCN(Cc4ccc(C5CCC(=O)NC5=O)c(F)c4)CC3)CC2)nc1-c1ccc(Oc2ccccc2)cc1 (stereo not shown) [GT-03754, 6-(4-(4-(4-(2,6-dioxopiperidin-3-yl)-3-fluorobenzyl)piperazin-1-yl)piperidin-1-yl)-2-(4-phenoxyphenyl)nicotinamide]
IC50 (MM.1R): 100 to 500 nM
IC50 (SW620): 100 to 500 nM
IC50 (K562): 100 to 500 nM

CN(Cc1ccc(C2CCC(=O)NC2=O)cc1)C1CCN(c2cccc(-c3cnc4ccc(N5CCC[C@@H]5c5cccc(F)c5)nn34)n2)CC1 (stereo partly drawn) [GT-03898, 3-(4-(((1-(6-(6-((R)-2-(3-fluorophenyl)pyrrolidin-1-yl)imidazo[1,2-b]pyridazin-3-yl)pyridin-2-yl)piperidin-4-yl)(methyl)amino)methyl)phenyl)piperidine-2,6-dione]
inhibition at 0.5 µM ([1]; Table II-2, CRBN binding screening, at 0.5µM, read-out: Inhibition rate (%) at 0.5µM): 60 to 80%
inhibition at 2 µM ([1]; Table II-2, CRBN binding screening, at 2 µM, read-out: Inhibition rate (%) at 2 µM): 80 to 100%
Degradation of substrate protein TRK (substrate protein remaining %) (TRK): A (A is defined as 0% ≤ substrate protein remaining % ≤ 80%)

Cc1nc(Nc2ncc(C(=O)Nc3c(C)cccc3Cl)s2)cc(N2CCN(CCO)CC2)n1 [Dasatinib, reference compound]
IC50 (SW620): 1000 to 5000 nM
IC50 (MGC-803): 5000 to 10000 nM
IC50 (CCRF-CEM): > 10000 nM
IC50 (Jurkat): 1000 to 5000 nM
IC50 (LNcap): 5000 to 10000 nM
IC50 (CFPAC-1): 100 to 500 nM

CN(Cc1ccc(C2CCC(=O)NC2=O)cc1)C1CCN(c2ccc(C(=O)Nc3n[nH]c4ccc(Cc5cc(F)cc(F)c5)cc34)c(NC3CCOCC3)c2)CC1 (stereo not shown) [GT-03964, N-(5-(3,5-difluorobenzyl)-1H-indazol-3-yl)-4-(4-((4-(2,6-dioxopiperidin-3-yl)benzyl)(methyl)amino)piperidin-1-yl)-2-((tetrahydro-2H-pyran-4-yl)amino)benzamide]
Degradation of substrate protein TRK (substrate protein remaining %) (TRK): A (A is defined as 0% ≤ substrate protein remaining % ≤ 80%)

CN(Cc1ccc(C2CCC(=O)NC2=O)c(F)c1)C1CCN(c2ccc(C(=O)Nc3n[nH]c4ccc(Cc5cc(F)cc(F)c5)cc34)c(NC3CCOCC3)c2)CC1 (stereo not shown) [GT-03965, N-(5-(3,5-difluorobenzyl)-1H-indazol-3-yl)-4-(4-((4-(2,6-dioxopiperidin-3-yl)-3-fluorobenzyl)(methyl)amino)piperidin-1-yl)-2-((tetrahydro-2H-pyran-4-yl)amino)benzamide]
Degradation of substrate protein TRK (substrate protein remaining %) (TRK): A (A is defined as 0% ≤ substrate protein remaining % ≤ 80%)

C=CC(=O)N1CCC(c2ccc(C(N)=O)c(-c3ccc(Oc4ccccc4)cc3)n2)CC1 [Orelabrutinib, reference compound]
IC50 (H2228): > 10000 nM
IC50 (PC-9): > 10000 nM
IC50 (H1975): > 10000 nM
IC50 (MM.1R): > 10000 nM
IC50 (SW620): > 10000 nM
IC50 (K562): > 10000 nM
IC50 (TMD8): 5000 to 10000 nM

O=C1CCC(c2ccc(CN3CCN(C4CCN(c5ccc([C@@H]6c7ccc(O)cc7CC[C@@H]6c6ccccc6)cc5)CC4)CC3)cc2F)C(=O)N1 (stereo partly drawn) [GT-04670, 3-(2-fluoro-4-((4-(1-(4-((1R,2S)-6-hydroxy-2-phenyl-1,2,3,4-tetrahydronaphthalen-1-yl)phenyl)piperidin-4-yl)piperazin-1-yl)methyl)phenyl)piperidine-2,6-dione]
IC50 [1]: 500 to 1000 nM
Degradation of substrate protein ER (substrate protein remaining %) (ER): A (A is defined as 0% ≤ substrate protein remaining % ≤ 80%)

Reference: patent EP4678638A1, “NEW E3 UBIQUITIN LIGASE LIGAND, PROTEIN DEGRADATION AGENT AND USE THEREOF” (priority 2023, dated 2024)
